Measured values published in ChEMBL document CHEMBL3044591, “Biological Activity of Some 2-Arylamino-4-aryloxyacetyl-2-1, 3, 4-thiadiazolidine Derivatives” (1994).

Assays:
Assay type in all cases: functional
[1] = test system: Bipolaris oryzae; test: Fungicidal activity against Bipolaris oryzae assessed as inhibition at 10 ppm measured after 96 hr by agar growth technique
[2] = test system: Setaria viridis; test: Herbicidal activity against Setaria viridis (green foxtail) assessed as killing at 6 kg/ha by post-emergent activity assay
[3] = test system: Bipolaris oryzae; test: Fungicidal activity against Bipolaris oryzae assessed as inhibition at 100 ppm measured after 96 hr by agar growth technique
[4] = test system: Aspergillus niger; test: Fungicidal activity against Aspergillus niger assessed as inhibition at 100 ppm measured after 96 hr by agar growth technique
[5] = test system: Aspergillus niger; test: Fungicidal activity against Aspergillus niger assessed as inhibition at 10 ppm measured after 96 hr by agar growth technique
[6] = test system: Triticum aestivum; test: Herbicidal activity against Triticum aestivum (wheat) assessed as killing at 6 kg/ha by post-emergent activity assay
[7] = test system: Aspergillus niger; test: Fungicidal activity against Aspergillus niger assessed as inhibition at 1000 ppm measured after 96 hr by agar growth technique
[8] = test system: Bipolaris oryzae; test: Fungicidal activity against Bipolaris oryzae assessed as inhibition at 1000 ppm measured after 96 hr by agar growth technique
[9] = test system: Abutilon theophrasti; test: Herbicidal activity against Abutilon theophrasti (velvetleaf) assessed as killing at 6 kg/ha by post-emergent activity assay
[10] = test system: Echinochloa crus-galli; test: Herbicidal activity against Echinochloa crus-galli (barnyard grass) assessed as killing at 6 kg/ha by post-emergent activity assay
[11] = test system: Sorghum halepense; test: Herbicidal activity against Sorghum halepense (Johnson grass) assessed as killing at 6 kg/ha by post-emergent activity assay

| SMILES | inhibition at 10 ppm [1] [%] | Activity [2] [%] | inhibition at 100 ppm [3] [%] | inhibition at 100 ppm [4] [%] | inhibition at 10 ppm [5] [%] | Activity [6] [%] | inhibition at 1000 ppm [7] [%] | inhibition at 1000 ppm [8] [%] | Activity [9] [%] | Activity [10] [%] | Activity [11] [%] |
| --- | --- | --- | --- | --- | --- | --- | --- | --- | --- | --- | --- |
| COc1ccc(NC2=NN(C(=O)COc3ccccc3Cl)C(C)(C)S2)cc1 | 31 | 100 | 53 | 56 | 37 | 10 | 65 | 60 | 100 | 100 | 100 |
| Cc1ccc(NC2=NN(C(=O)COc3cccc(C)c3)C(C)(C)S2)cc1 | 48 | 20 | 63 | 68 | 54 | 15 | 75 | 71 | 30 | 60 | 50 |
| Cc1ccc(NC2=NN(C(=O)COc3ccccc3Cl)C(C)(C)S2)cc1 | 32 | 50 | 44 | 52 | 49 | 30 | 63 | 56 | 50 | 20 | 50 |
| Cc1cccc(OCC(=O)N2N=C(Nc3ccc(Cl)cc3)SC2(C)C)c1 | 38 | 50 | 47 | 54 | 48 | 10 | 63 | 59 | 40 | 50 | 60 |
| CC1(C)SC(Nc2ccccc2)=NN1C(=O)COc1ccccc1Cl | 31 | 50 | 42 | 44 | 51 | 20 | 56 | 52 | 40 | 60 | 70 |
| CC1(C)SC(Nc2ccc(Cl)cc2)=NN1C(=O)COc1ccccc1Cl | 39 | 50 | 48 | 50 | 49 | 10 | 62 | 58 | 40 | 50 | 30 |
| CC1(C)SC(Nc2ccccc2)=NN1C(=O)COc1ccc(Cl)cc1 | 59 | 40 | 67 | 69 | 45 | 0 | 78 | 76 | 40 | 50 | 60 |
| COc1ccc(NC2=NN(C(=O)COc3cccc(C)c3)C(c3ccccc3)S2)cc1 (stereo unspecified) | 50 | 100 | 65 | 67 | 51 | 10 | 74 | 72 | 100 | 100 | 100 |
| Cc1ccc(NC2=NN(C(=O)COc3cccc(C)c3)C(c3ccccc3)S2)cc1 (stereo unspecified) | 46 | 20 | 61 | 62 | 47 | 10 | 70 | 68 | 60 | 30 | 50 |
| Cc1cccc(OCC(=O)N2N=C(Nc3ccc(Cl)cc3)SC2c2ccccc2)c1 (stereo unspecified) | 38 | 50 | 48 | 49 | 40 | 15 | 62 | 58 | 50 | 60 | 60 |
| Cc1cccc(OCC(=O)N2N=C(Nc3ccccc3)SC2c2ccccc2)c1 (stereo unspecified) | 39 | 60 | 49 | 54 | 38 | 0 | 67 | 61 | 60 | 60 | 60 |
| COc1ccc(NC2=NN(C(=O)COc3ccccc3Cl)C(c3ccccc3)S2)cc1 (stereo unspecified) | 44 | 100 | 58 | 59 | 44 | 10 | 65 | 63 | 100 | 100 | 90 |
| Cc1ccc(NC2=NN(C(=O)COc3ccccc3Cl)C(c3ccccc3)S2)cc1 (stereo unspecified) | 39 | 50 | 50 | 52 | 43 | 30 | 65 | 60 | 40 | 50 | 60 |
| O=C(COc1ccccc1Cl)N1N=C(Nc2ccc(Cl)cc2)SC1c1ccccc1 (stereo unspecified) | 78 | 60 | 80 | 83 | 78 | 25 | 92 | 92 | 50 | 60 | 40 |
| COc1ccc(NC2=NN(C(=O)COc3cccc(C)c3)C(C)(C)S2)cc1 | 36 | 100 | 54 | 58 | 43 | 10 | 69 | 65 | 100 | 100 | 100 |
| O=C(COc1ccccc1Cl)N1N=C(Nc2ccccc2)SC1c1ccccc1 (stereo unspecified) | 75 | 50 | 80 | 82 | 77 | 20 | 92 | 90 | 50 | 50 | 60 |
